Numbered stars: 1 amine (or outer) side, 2 acyl side, 3 side chain; on linkers, the order of the positions; unused ones are H or OH. Bridge positions count the residues as written; N and C are the ends. Square brackets hold non-standard residues; d marks the D form. Peptide text beside a SMILES is read from it. Trp(βS-Me,7-OMe) = COc1cccc2c([C@H](C)[C@H](N)C(=O)O)c[nH]c12; Trp(7-CN) = N#Cc1cccc2c(C[C@H](N)C(=O)O)c[nH]c12; Trp(7-Cl) = N[C@@H](Cc1c[nH]c2c(Cl)cccc12)C(=O)O; X29 = NC(=O)Cc1cccc(C[C@H](N[*:1])C(=O)[*:2])c1; Phe(4-CONH2) = NC(=O)c1ccc(C[C@H](N)C(=O)O)cc1; Phe(4-COOH) = N[C@@H](Cc1ccc(C(=O)O)cc1)C(=O)O; Trp(7-aza) = N[C@@H](Cc1c[nH]c2ncccc12)C(=O)O; Trp(1-Me) = Cn1cc(C[C@H](N)C(=O)O)c2ccccc21; X1 = O=C([C@@H]1CC[C@H](N[*:1])C1)[*:2]; Pip(4-aza) = O=C(O)[C@@H]1CNCCN1; 4Pal = N[C@@H](Cc1ccncc1)C(=O)O; NMeE = CN[C@@H](CCC(=O)O)C(=O)O; dHyp = O=C(O)[C@H]1C[C@H](O)CN1; Ahp(2) = CCCCC[C@H](N)C(=O)O; αMeS = C[C@](N)(CO)C(=O)O; Nle = CCCC[C@H](N)C(=O)O; Sar = CNCC(=O)O
Assays:
[1] = biological target: T1, human soluble TNFR1 (sTNFR1) (Homo sapiens, UniProt P19438); experiment: Human sTNFR1-peptide displacement assay (LanthaScreen Eu TR-FRET binding assay)
T1 construct: made in house; host or cells: Sf21 (baculovirus)
T1 sequence (P19438 with tags, fused parts or gaps): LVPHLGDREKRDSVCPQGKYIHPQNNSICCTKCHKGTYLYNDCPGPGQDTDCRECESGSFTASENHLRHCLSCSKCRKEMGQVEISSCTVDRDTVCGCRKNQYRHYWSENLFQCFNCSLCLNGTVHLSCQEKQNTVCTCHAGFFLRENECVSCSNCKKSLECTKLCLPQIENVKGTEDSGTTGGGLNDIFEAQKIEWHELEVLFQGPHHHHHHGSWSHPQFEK
In short: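 Readout is the 665/615 nm TR-FRET ratio (Eu anti-His donor, streptavidin-Alexa647 acceptor), normalized to DMSO and saturating displacer, fit by Morrison-based five-parameter logistic for Kd^app. His-tagged sTNFR1 (1-211) prebound to 100 nM biotinylated peptide SEQ ID NO.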

[2] = biological target: T2, human TNFR1 extracellular domain (ECD) protein (Homo sapiens, UniProt P19438); experiment: SPR binding affinity to captured human TNFR1 ECD
T2 construct: HRV 3C protease cleavage site (C); 6His (C, cleaved yes); made in house; host or cells: Sf21 insect cells (baculovirus), secreted
T2 sequence (P19438 30-211): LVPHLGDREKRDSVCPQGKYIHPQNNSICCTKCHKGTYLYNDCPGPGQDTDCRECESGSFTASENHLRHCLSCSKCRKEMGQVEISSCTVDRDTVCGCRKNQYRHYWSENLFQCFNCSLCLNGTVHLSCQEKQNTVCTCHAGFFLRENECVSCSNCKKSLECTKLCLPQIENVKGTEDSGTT
In short: (§1)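 Read-out: kon, koff and derived affinity from SPR response units. Human TNFR1 and TNFR2 ECD, Avi-tag biotinylated with BirA, captured on a streptavidin surface; peptides injected under laminar flow in HEPES-saline with EDTA, P20 and 2% DMSO.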

human TNFR2 ECD protein = biological target: T3, human TNFR2 ECD protein (Homo sapiens, UniProt P20333); experiment: SPR off-target binding (selectivity) to human TNFR2 ECD
T3 construct: HRV 3C protease cleavage site (C); 6His (C, cleaved yes); made in house; host or cells: Sf21 insect cells (baculovirus), secreted
T3 sequence (P20333 23-257): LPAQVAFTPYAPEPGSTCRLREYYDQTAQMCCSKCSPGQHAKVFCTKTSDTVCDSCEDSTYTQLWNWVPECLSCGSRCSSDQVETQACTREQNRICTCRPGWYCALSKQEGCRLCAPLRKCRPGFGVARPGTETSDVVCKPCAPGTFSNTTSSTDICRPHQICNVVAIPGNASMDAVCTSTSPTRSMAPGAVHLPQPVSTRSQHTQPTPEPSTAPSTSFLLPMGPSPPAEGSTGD
In short: as §1

Row | Compound | IC50 [1] [nM] | Kd [1] [nM] | Kd [2] [nM] | Kd (human TNFR2 ECD protein) [nM]
1 | CCCC[C@@H]1NC(=O)CSC[C@@H](C(N)=O)NC(=O)[C@H](Cc2cn(C)c3ccccc23)NC(=O)CN(C)C(=O)[C@H](Cc2ccc(O)cc2)NC(=O)[C@H](Cc2ccc(C(=O)O)cc2)NC(=O)[C@](C)(CO)NC(=O)[C@H](Cc2c[nH]c3c(Cl)cccc23)NC(=O)[C@H](Cc2ccncc2)NC(=O)[C@H](CC(N)=O)NC(=O)[C@H](CCC(=O)O)N(C)C(=O)[C@H](Cc2c[nH]c3ncccc23)NC(=O)[C@H](CO)NC(=O)[C@H](Cc2ccncc2)NC1=O [SEQ ID NO. 223] ({CH2CO}-[Nle][4Pal]S[Trp(7-aza)][NMeE]N[4Pal][Trp(7-Cl)][αMeS][Phe(4-COOH)]Y[Sar][Trp(1-Me)]C-NH2; thioether N-14) | 0.39 | 0.48 | 0.3 | > 1000
2 | CN1CC(=O)N[C@@H](CC(N)=O)C(=O)N[C@@H](Cc2ccc(O)cc2)C(=O)N[C@@H](Cc2c[nH]c3ccccc23)C(=O)N[C@@H](CO)C(=O)N[C@@H](Cc2ccc(O)cc2)C(=O)N[C@@H](Cc2ccc(O)cc2)C(=O)N(C)CC(=O)N[C@@H](Cc2c[nH]c3ccccc23)C(=O)N[C@H](C(=O)NCC(=O)N[C@@H](CCC(=O)O)C(=O)N[C@@H](CCC(=O)O)C(N)=O)CSCC(=O)N[C@@H](Cc2ccccc2)C(=O)N[C@@H](Cc2ccc(O)cc2)C(=O)N[C@@H](CO)C(=O)N[C@@H](Cc2c[nH]c3ccccc23)C1=O [SEQ ID NO. 289] ({CH2CO}-FYSW[Sar]NYWSYY[Sar]WCGEE-NH2; thioether N-14) | 9.87 |  | 7.43 | > 1000
3 | CCCCC[C@@H]1NC(=O)[C@@H]2CC[C@@H](C2)NC(=O)[C@H]([C@@H](C)c2c[nH]c3c(OC)cccc23)NC(=O)CN(C)C(=O)[C@H](Cc2ccc(OC)cc2)NC(=O)[C@H](Cc2ccc(C(N)=O)cc2)NC(=O)[C@](C)(CO)NC(=O)[C@H](Cc2c[nH]c3c(C#N)cccc23)NC(=O)[C@H](Cc2ccncc2)NC(=O)[C@H](CC(N)=O)NC(=O)[C@H]2C[C@H](O)CN2C(=O)[C@H](Cc2c[nH]c3ccccc23)NC(=O)[C@@H]2CNCCN2C(=O)[C@H](Cc2ccncc2)NC1=O [SEQ ID NO. 200] (cyclo([4Pal][Trp(7-CN)][αMeS][Phe(4-CONH2)]Y(Me)[Sar][Trp(βS-Me,7-OMe)][X1][Ahp(2)][4Pal][Pip(4-aza)]W[dHyp]N)) |  | 0.09 | 0.02 | > 1000
4 | CCCC[C@@H]1NC(=O)CSC[C@@H](C(N)=O)NC(=O)[C@H]([C@@H](C)c2c[nH]c3c(OC)cccc23)NC(=O)CN(C)C(=O)[C@H](Cc2ccc(O)cc2)NC(=O)[C@H](Cc2ccc(C(=O)O)cc2)NC(=O)[C@](C)(CO)NC(=O)[C@H](Cc2c[nH]c3c(Cl)cccc23)NC(=O)[C@H](Cc2ccc(OC)cc2)NC(=O)[C@H](CC(N)=O)NC(=O)[C@H](CCC(=O)O)N(C)C(=O)[C@H](Cc2c[nH]c3ccccc23)NC(=O)[C@@H]2CNCCN2C(=O)[C@H](Cc2ccncc2)NC1=O [SEQ ID NO. 218] ({CH2CO}-[Nle][4Pal][Pip(4-aza)]W[NMeE]NY(Me)[Trp(7-Cl)][αMeS][Phe(4-COOH)]Y[Sar][Trp(βS-Me,7-OMe)]C-NH2; thioether N-14) | 1.15 |  | 0.5 | > 1000
5 | CCCC[C@@H]1NC(=O)[C@@H]2CC[C@@H](C2)NC(=O)[C@H]([C@@H](C)c2c[nH]c3c(OC)cccc23)NC(=O)CN(C)C(=O)[C@H](Cc2cccc(CC(N)=O)c2)NC(=O)[C@H](Cc2ccc(C(=O)O)cc2)NC(=O)[C@](C)(CO)NC(=O)[C@H](Cc2c[nH]c3c(Cl)cccc23)NC(=O)[C@H](Cc2ccncc2)NC(=O)[C@H](CC(N)=O)NC(=O)[C@H](CCC(=O)O)N(C)C(=O)[C@H](Cc2c[nH]c3ccccc23)NC(=O)[C@@H]2CNCCN2C(=O)[C@H](Cc2ccncc2)NC1=O [SEQ ID NO. 153] (cyclo([4Pal][Trp(7-Cl)][αMeS][Phe(4-COOH)][X29][Sar][Trp(βS-Me,7-OMe)][X1][Nle][4Pal][Pip(4-aza)]W[NMeE]N)) |  | 0.23 | 0.16 | > 1000
